Test results from ChEMBL document CHEMBL1152750, “Design, synthesis and structure-activity relationships of 1,3,4-oxadiazole derivatives as novel inhibitors of glycogen synthase kinase-3beta” (Bioorg Med Chem, 2009).

Columns and labels:
[1] = target: Glycogen synthase kinase-3 beta (Homo sapiens, UniProt P49841); assay: Inhibition of human GSK3-beta
[2] = target: Mitogen-activated protein kinase 14 (Homo sapiens, UniProt Q16539); assay: Inhibition of p38alpha
[3] = target: Dual specificity mitogen-activated protein kinase kinase 1 (Homo sapiens, UniProt Q02750); assay: Inhibition of MEK1
[4] = target: Mast/stem cell growth factor receptor Kit (Homo sapiens, UniProt P10721); assay: Inhibition of cKit
[5] = target: Mitogen-activated protein kinase kinase kinase 1 (Homo sapiens, UniProt Q13233); assay: Inhibition of MEKK1
[6] = target: Tyrosine-protein kinase Lck (Homo sapiens, UniProt P06239); assay: Inhibition of Lck
[7] = target: Mitogen-activated protein kinase 8 (Homo sapiens, UniProt P45983); assay: Inhibition of JNK1
[8] = test system: Rattus norvegicus; assay: Volume of distribution at steady state in rat […]; format: ADME, organism-based; conditions: in vivo
[9] = target: Mitogen-activated protein kinase 3 (Homo sapiens, UniProt P27361); assay: Inhibition of ERK1
[10] = target: Proto-oncogene tyrosine-protein kinase Src (Homo sapiens, UniProt P12931); assay: Inhibition of SRC
[11] = target: Serine/threonine-protein kinase B-raf (Homo sapiens, UniProt P15056); assay: Inhibition of BRAF
[12] = target: Cyclin-dependent kinase 2 (Homo sapiens, UniProt P24941); assay: Inhibition of CDK2
[13] = target: Aurora kinase B (Homo sapiens, UniProt Q96GD4); assay: Inhibition of Aurora B
[14] = target: Casein kinase I isoform delta (Homo sapiens, UniProt P48730); assay: Inhibition of CK1delta expressed in Escherichia coli
[15] = target: Protein kinase C theta type (Homo sapiens, UniProt Q04759); assay: Inhibition of PKCtheta
[16] = AUC in rat at 1 mg/kg, po; format: ADME, organism-based; parameters: dose 1 mg/kg, route oral; conditions: plasma
[17] = target: Hepatocyte growth factor receptor (Homo sapiens, UniProt P08581); assay: Inhibition of cMet
[18] = target: Cyclin-dependent kinase 1 (Homo sapiens, UniProt P06493); assay: Inhibition of CDK1
[19] = target: Angiopoietin-1 receptor (Homo sapiens, UniProt Q02763); assay: Inhibition of Tie2
[20] = target: Receptor tyrosine-protein kinase erbB-2 (Homo sapiens, UniProt P04626); assay: Inhibition of HER2
[21] = Inhibition of VEGFR
[22] = Inhibition of PKA expressed in Escherichia coli
[23] = Total clearance in rat at 0.1 mg/kg, iv; format: ADME, organism-based; parameters: dose 0.1 mg/kg, route intravenous; conditions: in vivo
[24] = target: Inhibitor of nuclear factor kappa-B kinase subunit beta (Homo sapiens, UniProt O14920); assay: Inhibition of IKK-beta
[25] = Oral bioavailability in rat at 1 mg/kg; format: ADME, organism-based; conditions: in vivo
[26] = target: Cyclin-dependent kinase 5 (Homo sapiens, UniProt Q00535); assay: Inhibition of CDK5
[27] = target: Fibroblast growth factor receptor 3 (Homo sapiens, UniProt P22607); assay: Inhibition of FGFR3
Chain of Fibroblast growth factor receptor 3 (P22607 whole entry): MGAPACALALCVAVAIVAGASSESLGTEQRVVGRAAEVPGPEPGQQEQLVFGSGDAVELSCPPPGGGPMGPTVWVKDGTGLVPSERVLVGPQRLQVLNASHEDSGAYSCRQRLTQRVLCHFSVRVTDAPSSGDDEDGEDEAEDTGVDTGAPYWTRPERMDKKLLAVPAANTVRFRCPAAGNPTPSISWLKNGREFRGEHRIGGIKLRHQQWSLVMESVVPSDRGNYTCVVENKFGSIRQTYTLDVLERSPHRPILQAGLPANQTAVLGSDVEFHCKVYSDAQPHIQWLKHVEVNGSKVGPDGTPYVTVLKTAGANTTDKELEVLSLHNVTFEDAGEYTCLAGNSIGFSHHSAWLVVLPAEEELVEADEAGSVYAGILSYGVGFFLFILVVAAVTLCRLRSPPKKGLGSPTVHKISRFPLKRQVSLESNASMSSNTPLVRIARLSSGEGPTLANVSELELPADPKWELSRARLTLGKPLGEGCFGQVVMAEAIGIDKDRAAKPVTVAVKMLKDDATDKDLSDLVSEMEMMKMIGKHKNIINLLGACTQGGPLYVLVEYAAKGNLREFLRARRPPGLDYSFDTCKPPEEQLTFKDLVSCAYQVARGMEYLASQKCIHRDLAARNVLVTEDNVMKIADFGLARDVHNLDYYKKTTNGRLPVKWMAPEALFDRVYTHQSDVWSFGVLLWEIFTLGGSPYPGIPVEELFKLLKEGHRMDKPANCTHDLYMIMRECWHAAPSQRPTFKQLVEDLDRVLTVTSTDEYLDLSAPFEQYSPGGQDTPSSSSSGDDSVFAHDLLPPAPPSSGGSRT

Chain of Glycogen synthase kinase-3 beta (P49841 whole entry): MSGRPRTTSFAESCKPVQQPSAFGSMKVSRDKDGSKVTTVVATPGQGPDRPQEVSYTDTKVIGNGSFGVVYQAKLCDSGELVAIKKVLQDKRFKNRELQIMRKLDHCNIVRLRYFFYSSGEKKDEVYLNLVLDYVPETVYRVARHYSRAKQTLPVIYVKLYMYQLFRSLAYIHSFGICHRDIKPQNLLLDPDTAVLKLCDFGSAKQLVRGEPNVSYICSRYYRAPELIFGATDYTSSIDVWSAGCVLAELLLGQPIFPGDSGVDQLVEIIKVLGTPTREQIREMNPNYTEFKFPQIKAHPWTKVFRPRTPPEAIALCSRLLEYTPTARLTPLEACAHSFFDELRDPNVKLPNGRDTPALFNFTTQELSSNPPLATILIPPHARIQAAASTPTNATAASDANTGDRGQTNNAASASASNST
Chain of Mitogen-activated protein kinase 8 (P45983 whole entry): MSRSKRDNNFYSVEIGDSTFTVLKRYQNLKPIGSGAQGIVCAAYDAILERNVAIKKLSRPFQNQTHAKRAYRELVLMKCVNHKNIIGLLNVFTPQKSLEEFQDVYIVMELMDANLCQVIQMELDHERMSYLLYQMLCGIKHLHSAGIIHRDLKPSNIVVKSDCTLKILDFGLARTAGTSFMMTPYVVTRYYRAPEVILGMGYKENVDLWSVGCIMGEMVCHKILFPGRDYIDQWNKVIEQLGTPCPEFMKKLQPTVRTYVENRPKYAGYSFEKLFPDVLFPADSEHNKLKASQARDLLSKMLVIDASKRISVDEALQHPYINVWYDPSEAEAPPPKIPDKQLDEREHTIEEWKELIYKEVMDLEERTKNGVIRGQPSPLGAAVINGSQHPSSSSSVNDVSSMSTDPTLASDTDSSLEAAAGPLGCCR
Chain of Mitogen-activated protein kinase 3 (P27361 whole entry): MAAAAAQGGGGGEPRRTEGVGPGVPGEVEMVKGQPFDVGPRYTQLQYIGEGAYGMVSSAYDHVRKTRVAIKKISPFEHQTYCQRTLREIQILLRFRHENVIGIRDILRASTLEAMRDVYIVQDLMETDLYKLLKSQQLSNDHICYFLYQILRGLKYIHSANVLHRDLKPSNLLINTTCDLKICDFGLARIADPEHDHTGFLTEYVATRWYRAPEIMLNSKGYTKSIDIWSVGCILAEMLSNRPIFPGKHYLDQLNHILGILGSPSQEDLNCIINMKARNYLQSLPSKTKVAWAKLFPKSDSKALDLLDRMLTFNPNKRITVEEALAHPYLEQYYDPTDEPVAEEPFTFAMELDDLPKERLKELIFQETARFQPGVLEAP
Chain of Serine/threonine-protein kinase B-raf (P15056 whole entry): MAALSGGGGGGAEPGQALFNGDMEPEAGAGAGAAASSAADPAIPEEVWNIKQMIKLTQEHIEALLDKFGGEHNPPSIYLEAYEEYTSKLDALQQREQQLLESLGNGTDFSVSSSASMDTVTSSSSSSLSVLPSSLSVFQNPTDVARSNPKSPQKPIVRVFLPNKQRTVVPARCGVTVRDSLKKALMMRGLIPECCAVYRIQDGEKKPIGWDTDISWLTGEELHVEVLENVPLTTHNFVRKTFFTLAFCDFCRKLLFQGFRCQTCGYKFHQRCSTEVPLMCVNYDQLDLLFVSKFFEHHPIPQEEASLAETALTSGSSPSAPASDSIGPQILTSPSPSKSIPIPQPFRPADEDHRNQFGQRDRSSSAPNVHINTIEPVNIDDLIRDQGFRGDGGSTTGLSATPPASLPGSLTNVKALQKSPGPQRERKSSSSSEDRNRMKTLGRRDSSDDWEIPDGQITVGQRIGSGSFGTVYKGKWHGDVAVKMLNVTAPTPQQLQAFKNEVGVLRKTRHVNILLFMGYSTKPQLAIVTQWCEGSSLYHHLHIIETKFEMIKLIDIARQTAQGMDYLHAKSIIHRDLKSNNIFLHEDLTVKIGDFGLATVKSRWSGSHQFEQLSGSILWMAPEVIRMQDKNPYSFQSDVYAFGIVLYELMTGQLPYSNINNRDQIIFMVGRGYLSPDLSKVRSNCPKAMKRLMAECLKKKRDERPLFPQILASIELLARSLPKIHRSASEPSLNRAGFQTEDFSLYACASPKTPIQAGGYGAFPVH
Chain of Tyrosine-protein kinase Lck (P06239 whole entry): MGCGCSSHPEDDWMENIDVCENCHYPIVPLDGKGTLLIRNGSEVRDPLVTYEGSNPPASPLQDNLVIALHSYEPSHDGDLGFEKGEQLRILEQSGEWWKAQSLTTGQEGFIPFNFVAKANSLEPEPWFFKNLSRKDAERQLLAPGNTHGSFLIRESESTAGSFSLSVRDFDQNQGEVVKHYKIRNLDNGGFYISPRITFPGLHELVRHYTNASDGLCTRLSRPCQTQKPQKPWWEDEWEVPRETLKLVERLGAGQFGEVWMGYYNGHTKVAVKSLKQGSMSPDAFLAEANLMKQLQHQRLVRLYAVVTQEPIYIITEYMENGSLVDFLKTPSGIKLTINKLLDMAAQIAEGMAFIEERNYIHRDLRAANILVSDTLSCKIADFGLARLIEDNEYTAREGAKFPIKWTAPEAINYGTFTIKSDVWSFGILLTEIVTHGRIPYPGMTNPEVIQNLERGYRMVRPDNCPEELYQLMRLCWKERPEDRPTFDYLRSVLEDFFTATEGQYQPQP
Chain of Mast/stem cell growth factor receptor Kit (P10721 whole entry): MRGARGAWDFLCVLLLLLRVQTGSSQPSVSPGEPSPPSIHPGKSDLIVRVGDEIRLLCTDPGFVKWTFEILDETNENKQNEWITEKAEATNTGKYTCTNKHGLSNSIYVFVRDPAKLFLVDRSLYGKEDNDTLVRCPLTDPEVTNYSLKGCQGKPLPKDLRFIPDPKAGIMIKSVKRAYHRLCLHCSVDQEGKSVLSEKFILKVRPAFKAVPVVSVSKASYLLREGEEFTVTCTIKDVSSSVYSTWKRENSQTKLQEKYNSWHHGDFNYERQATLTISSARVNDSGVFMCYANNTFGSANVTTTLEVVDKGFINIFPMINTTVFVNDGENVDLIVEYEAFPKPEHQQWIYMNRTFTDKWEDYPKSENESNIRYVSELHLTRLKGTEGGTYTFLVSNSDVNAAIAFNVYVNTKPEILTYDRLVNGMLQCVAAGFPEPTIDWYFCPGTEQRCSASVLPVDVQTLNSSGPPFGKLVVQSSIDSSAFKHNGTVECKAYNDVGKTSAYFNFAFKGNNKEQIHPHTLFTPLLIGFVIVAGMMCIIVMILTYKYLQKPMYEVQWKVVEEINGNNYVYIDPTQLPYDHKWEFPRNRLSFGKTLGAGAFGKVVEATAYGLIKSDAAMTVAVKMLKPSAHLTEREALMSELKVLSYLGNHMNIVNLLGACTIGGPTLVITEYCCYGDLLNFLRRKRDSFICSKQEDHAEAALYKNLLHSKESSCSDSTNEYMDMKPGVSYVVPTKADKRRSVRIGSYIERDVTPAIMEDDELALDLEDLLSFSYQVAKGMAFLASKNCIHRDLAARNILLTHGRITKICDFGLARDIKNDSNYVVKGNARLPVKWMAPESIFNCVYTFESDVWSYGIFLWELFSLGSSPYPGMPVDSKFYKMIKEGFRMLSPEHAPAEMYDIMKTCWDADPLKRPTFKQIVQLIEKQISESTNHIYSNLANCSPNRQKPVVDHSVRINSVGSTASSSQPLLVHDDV
Chain of Casein kinase I isoform delta (P48730 whole entry, canonical isoform): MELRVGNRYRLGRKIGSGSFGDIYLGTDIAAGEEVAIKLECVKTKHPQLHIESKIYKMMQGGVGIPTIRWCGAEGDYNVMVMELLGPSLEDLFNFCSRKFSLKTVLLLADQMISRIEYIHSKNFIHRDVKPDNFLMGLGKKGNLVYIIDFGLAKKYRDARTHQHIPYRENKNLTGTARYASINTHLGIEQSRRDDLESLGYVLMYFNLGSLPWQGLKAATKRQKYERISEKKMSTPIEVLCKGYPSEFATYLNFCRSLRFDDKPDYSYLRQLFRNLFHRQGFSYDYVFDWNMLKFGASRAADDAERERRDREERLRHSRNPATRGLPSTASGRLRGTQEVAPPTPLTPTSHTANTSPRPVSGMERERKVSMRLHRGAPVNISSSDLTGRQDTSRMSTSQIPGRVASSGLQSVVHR
Chain of Cyclin-dependent kinase 5 (Q00535 whole entry): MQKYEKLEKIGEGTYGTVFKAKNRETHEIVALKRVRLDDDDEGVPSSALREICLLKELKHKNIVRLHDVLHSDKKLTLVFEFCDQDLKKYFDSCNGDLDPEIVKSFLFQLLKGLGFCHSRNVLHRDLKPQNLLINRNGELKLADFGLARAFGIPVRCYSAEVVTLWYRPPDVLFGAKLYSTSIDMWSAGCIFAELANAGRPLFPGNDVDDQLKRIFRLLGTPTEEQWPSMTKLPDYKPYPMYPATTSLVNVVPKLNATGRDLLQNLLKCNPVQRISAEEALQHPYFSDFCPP

Compound: Fc1cccc(CNc2nnc(-c3ccc4c(c3)CCO4)o2)c1
- IC50 [1]: 330 nM

Compound: Fc1cccc(COc2nnc(-c3ccc4c(c3)CCO4)o2)c1
- IC50 [1]: > 10000 nM

Compound: c1ccc(CSc2nnc(-c3ccc4c(c3)CCO4)o2)cc1
- IC50 [1]: 210 nM

Compound: Cn1cnc2ccc(-c3nnc(SCc4cccc(C(F)(F)F)c4)o3)cc21
- IC50 [1]: 9.4 nM

Compound: O=[N+]([O-])c1ccc(NCCNc2ncc(-c3ncc[nH]3)c(-c3ccc(Cl)cc3Cl)n2)nc1
- IC50 [1]: 10 nM

Compound: COc1ccc(CSc2nnc(-c3ccc4[nH]ncc4c3)o2)cc1C(F)(F)F
- IC50 [1]: 16 nM

Compound: COc1ccc(CSc2nnc(-c3ccc4ncccc4c3)o2)cc1C(F)(F)F
- IC50 [1]: 18 nM

Compound: COc1ccc(-c2coc3ccc(-c4nnc(SCc5ccc(OC)c(C(F)(F)F)c5)o4)cc23)cc1
- IC50 [1]: 25 nM

Compound: N#Cc1cccc(CSc2nnc(-c3ccc4c(c3)CCO4)o2)c1
- IC50 [1]: 91 nM

Compound: COc1ccc(CSc2nnc(-c3ccc4c(c3)CCO4)o2)cc1Cl
- IC50 [1]: 13 nM

Compound: COc1ccc(CSc2nnc(-c3ccc4c(c3)CCO4)o2)cc1C#N
- IC50 [1]: 28 nM

Compound: Fc1cccc(CSc2nnc(-c3ccc4c(c3)CCO4)o2)c1
- IC50 [1]: 54 nM

Compound: Fc1cccc(CCc2nnc(-c3ccc4c(c3)CCO4)o2)c1
- IC50 [1]: 340 nM

Compound: COc1ccc(CSc2nnc(-c3ccc4c(c3)CCO4)o2)cc1
- IC50 [1]: 220 nM

Compound: Clc1cccc(CSc2nnc(-c3ccc4c(c3)CCO4)o2)c1
- IC50 [1]: 94 nM

Compound: Clc1ccc(CSc2nnc(-c3ccc4c(c3)CCO4)o2)cc1
- IC50 [1]: 280 nM

Compound: COC(=O)c1cccc(CSc2nnc(-c3ccc4c(c3)CCO4)o2)c1
- IC50 [1]: 630 nM

Compound: COc1ccc(CSc2nnc(-c3ccc4occc4c3)o2)cc1C(F)(F)F
- IC50 [1]: 4.9 nM

Compound: COc1ccc(-c2coc3ccc(-c4nnc(SCc5cccc(C(F)(F)F)c5)o4)cc23)cc1
- IC50 [1]: 8.4 nM

Compound: COc1ccc(-c2coc3ccc(-c4nnc(SCc5cccc(C#N)c5)o4)cc23)cc1
- IC50 [1]: 3.5 nM

Compound: COc1ccc(-n2cnc3ccc(-c4nnc(SCc5ccc(OC)c(C(F)(F)F)c5)o4)cc32)cc1
- IC50 [1]: 8.6 nM

Compound: FC(F)(F)c1cccc(CSc2nnc(-c3ccc4c(c3)CCO4)o2)c1
- IC50 [1]: 68 nM

Compound: COc1ccc(CSc2nnc(-c3ccc4ncsc4c3)o2)cc1C(F)(F)F
- IC50 [1]: 3.1 nM

Compound: COc1ccc(CSc2nnc(-c3ccc4c(c3)CCO4)o2)cc1C(F)(F)F
- IC50 [1]: 5.7 nM

Compound: Clc1ccccc1CSc1nnc(-c2ccc3c(c2)CCO3)o1
- IC50 [1]: 200 nM

Compound: COc1ccc(-n2cnc3ccc(-c4nnc(SCc5cccc(C(F)(F)F)c5)o4)cc32)cc1
- IC50 [1]: 2.5 nM

Compound: Fc1cccc(SCc2nnc(-c3ccc4c(c3)CCO4)o2)c1
- IC50 [1]: 680 nM

Compound: COc1ccc(CSc2nnc(-c3ccc4c(c3)CCO4)o2)cc1F
- IC50 [1]: 44 nM

Compound: COc1ccc(-n2cnc3ccc(-c4nnc(SCc5cccc(C#N)c5)o4)cc32)cc1
- IC50 [2]: > 10000 nM
- IC50 [3]: > 10000 nM
- IC50 [4]: > 10000 nM
- IC50 [5]: 8100 nM
- IC50 [6]: > 10000 nM
- IC50 [7]: > 10000 nM
- Vdss [8]: 1.453 L/kg
- IC50 [9]: > 10000 nM
- IC50 [10]: > 10000 nM
- IC50 [11]: > 10000 nM
- IC50 [12]: > 10000 nM
- IC50 [1]: 2.3 nM
- IC50 [13]: > 10000 nM
- IC50 [14]: > 10000 nM
- IC50 [15]: 3500 nM
- AUC [16]: 7.9 ng·h/mL
- IC50 [17]: > 10000 nM
- IC50 [18]: 4600 nM
- IC50 [19]: > 10000 nM
- IC50 [20]: > 10000 nM
- IC50 [21]: > 10000 nM
- IC50 [22]: > 10000 nM
- clearance [23]: 35.6 mL/min/kg
- IC50 [24]: > 10000 nM
- bioavailability [25]: 1.7%
- IC50 [26]: > 10000 nM
- IC50 [27]: > 10000 nM
